# In ChEMBL document CHEMBL3758138, “Synthesis and pharmacological evaluation of dehydroabietic acid thiourea derivatives containing bisphosphonate moiety as an inducer of apoptosis” (Eur J Med Chem, 2016):
# Activity calls are given as the source filed them. No cut-off for these calls is given here.
# Experiments:
# [1] = Cytotoxic activity against human HCT116 cells assessed as inhibition of cell growth after 48 hrs by MTT assay; type: functional, cell-based; conditions: HCT-116, 48 h
# NCI-H460 = experiment: Cytotoxic activity against human NCI-H460 cells assessed as inhibition of cell growth after 48 hrs by MTT assay; type: functional, cell-based; conditions: NCI-H460, 48 h
# [2] = Cytotoxic activity against human SKOV3 cells assessed as inhibition of cell growth after 48 hrs by MTT assay; type: functional, cell-based; conditions: SK-OV-3, 48 h
# A549 = experiment: Cytotoxic activity against human A549 cells assessed as inhibition of cell growth after 48 hrs by MTT assay; type: functional, cell-based; conditions: A549, 48 h
# [3] = Cytotoxic activity against human Bel7404 cells assessed as inhibition of cell growth after 48 hrs by MTT assay; type: functional, cell-based; conditions: BEL-7404, 48 h
# [4] = molecular target: Cyclin-dependent kinase 2/cyclin E1 (Homo sapiens, UniProt P24941); experiment: Inhibition of human recombinant C-terminal His6-tagged full length human Cdk2/human recombinant N-terminal GST-tagged full-length Cyclin E using histone H1 substrate after 40 mins by radiometric filter binding assay; type: protein-complex assay
# [5] = Cell cycle arrest in human SKOV3 cells assessed as accumulation at G2 phase at 5 uM after 24 hrs by propidium iodide staining based flow cytometry (reference value: 8.85%); type: functional; conditions: SK-OV-3
# SK-OV-3 [6] = experiment: Induction of apoptosis in human SKOV3 cells assessed as reduction in caspase-8 level in cytoplasm at 5 uM after 12 to 24 hrs by Western blot analysis; type: functional, cell-based
# [7] = Cell cycle arrest in human SKOV3 cells assessed as accumulation at G1 phase at 5 uM after 24 hrs by propidium iodide staining based flow cytometry (reference value: 53.38%); type: functional; conditions: SK-OV-3
# SK-OV-3 [8] = experiment: Induction of ROS generation in human SKOV3 cells at 5 uM after 12 hrs by DCF-DA dye based flow cytometry (reference value: 12.9%); type: functional
# SK-OV-3 [9] = experiment: Induction of apoptosis in human SKOV3 cells assessed as early apoptotic cells at 5 uM after 12 hrs by Annexin V-FITC/PI staining based flow cytometry (reference value: 2.8%); type: functional
# SK-OV-3 [10] = experiment: Induction of apoptosis in human SKOV3 cells assessed as increase in cytochrome c level in cytosol at 5 uM after 12 to 24 hrs by Western blot analysis; type: functional, cell-based
# SK-OV-3 [11] = experiment: Induction of apoptosis in human SKOV3 cells assessed as early apoptotic cells at 3 uM after 12 hrs by Annexin V-FITC/PI staining based flow cytometry (reference value: 2.8%); type: functional
# [12] = Cell cycle arrest in human SKOV3 cells assessed as accumulation at G1 phase at 3 uM after 24 hrs by propidium iodide staining based flow cytometry (reference value: 53.38%); type: functional; conditions: SK-OV-3
# [13] = Cell cycle arrest in human SKOV3 cells assessed as accumulation at S phase at 3 uM after 24 hrs by propidium iodide staining based flow cytometry (reference value: 37.77%); type: functional; conditions: SK-OV-3
# [14] = Downregulation of Bcl-2 protein expression in human SKOV3 cells after 12 to 24 hrs by Western blot analysis; type: functional, cell-based; conditions: SK-OV-3
# SK-OV-3 [15] = experiment: Induction of apoptosis in human SKOV3 cells assessed as caspase-3 cleavage at 5 uM after 12 to 24 hrs by Western blot analysis; type: functional, cell-based
# SK-OV-3 [16] = experiment: Induction of apoptosis in human SKOV3 cells assessed as caspase-9 cleavage at 5 uM after 12 to 24 hrs by Western blot analysis; type: functional, cell-based
# [17] = Cell cycle arrest in human SKOV3 cells assessed as accumulation at S phase at 5 uM after 24 hrs by propidium iodide staining based flow cytometry (reference value: 37.77%); type: functional; conditions: SK-OV-3
# SK-OV-3 [18] = experiment: Induction of apoptosis in human SKOV3 cells after 12 hrs by Annexin V-FITC/PI staining based flow cytometry; type: functional, cell-based
# SK-OV-3 [19] = experiment: Induction of apoptosis in human SKOV3 assessed as loss of membrane integrity at 5 uM after 12 to 24 hrs by AO/EB staining based fluorescence microscopic analysis; type: functional
# SK-OV-3 [20] = experiment: Induction of ROS generation in human SKOV3 cells at 5 uM after 12 hrs by DCF-DA dye based flow cytometry relative to control; type: functional
# SK-OV-3 [21] = experiment: Induction of apoptosis in human SKOV3 cells assessed as increase in chromatin condensation at 5 uM after 24 hrs by Hoechst 33258 staining based fluorescence microscopic analysis; type: functional, cell-based
# SK-OV-3 [22] = experiment: Induction of apoptosis in human SKOV3 cells assessed as depolarization of mitochondria at 5 uM after 12 to 24 hrs by JC-1 dye based fluorescence microscopic analysis; type: functional
# SK-OV-3 [23] = experiment: Induction of ROS generation in human SKOV3 cells at 5 uM after 24 hrs by DCF-DA dye based flow cytometry (reference value: 12.9%); type: functional
# [24] = Cell cycle arrest in human SKOV3 cells assessed as accumulation at G2 phase at 3 uM after 24 hrs by propidium iodide staining based flow cytometry (reference value: 8.85%); type: functional; conditions: SK-OV-3
# SK-OV-3 [25] = experiment: Induction of Fas protein expression in human SKOV3 cells after 12 to 24 hrs by Western blot analysis; type: functional, cell-based
# SK-OV-3 [26] = experiment: Induction of apoptosis in human SKOV3 cells assessed as late apoptotic cells at 3 uM after 12 hrs by Annexin V-FITC/PI staining based flow cytometry (reference value: 1.5%); type: functional
# [27] = Upregulation of Bax protein expression in human SKOV3 cells at 5 uM after 12 to 24 hrs by Western blot analysis; type: functional, cell-based; conditions: SK-OV-3
# SK-OV-3 [28] = experiment: Induction of apoptosis in human SKOV3 cells assessed as late apoptotic cells at 5 uM after 12 hrs by Annexin V-FITC/PI staining based flow cytometry (reference value: 1.5%); type: functional
# SK-OV-3 [29] = experiment: Induction of apoptosis in human SKOV3 cells assessed as caspase-3 activity by Ac-DEVD-pNA based spectrophotometric analysis; type: functional, cell-based; conditions: TDE = time-dependent effect
# SK-OV-3 [30] = experiment: Induction of apoptosis in human SKOV3 cells assessed as caspase-9 activity by Ac-LEHD-pNA based spectrophotometric analysis; type: functional, cell-based; conditions: TDE = time-dependent effect
smiles,measurement,setting,value
CC(C)c1ccc2c(c1)CC[C@H]1[C@](C)(C(=O)O)CCC[C@]21C [DEHYDROABIETIC ACID],IC50,[1],30.2 µM
same,IC50,NCI-H460,75 µM
same,IC50,[2],65.1 µM
same,IC50,A549,55.6 µM
same,IC50,[3],28.7 µM
same,IC50,[4],36.3 µM
CCOP(=O)(OCC)C(CNc1ccccc1NC(=S)NC(=O)[C@]1(C)CCC[C@]2(C)c3ccc(C(C)C)cc3CC[C@@H]12)P(=O)(OCC)OCC,IC50,[1],11.4 µM
same,IC50,NCI-H460,13.9 µM
same,IC50,[2],16.5 µM
same,IC50,A549,15 µM
same,IC50,[3],12.5 µM
same,IC50,[4],15.3 µM
O=c1[nH]cc(F)c(=O)[nH]1 [FLUOROURACIL],IC50,[1],24.6 µM
same,IC50,NCI-H460,35.5 µM
same,IC50,[2],22.4 µM
same,IC50,[3],30.2 µM
CCOP(=O)(OCC)C(CNc1ccc(F)cc1NC(=S)NC(=O)[C@]1(C)CCC[C@]2(C)c3ccc(C(C)C)cc3CC[C@@H]12)P(=O)(OCC)OCC,Activity,[5],10.5%
same,Activity,SK-OV-3 [6],Active
same,Activity,[7],68.1%
same,Activity,SK-OV-3 [8],33.6%
same,Activity,SK-OV-3 [9],24.7%
same,Activity,SK-OV-3 [10],Active
same,IC50,[1],6.01 µM
same,Activity,SK-OV-3 [11],14.5%
same,Activity,[12],59.8%
same,Activity,[13],26.9%
same,Activity,[14],Dose-dependent effect
same,Activity,SK-OV-3 [15],Active
same,Activity,SK-OV-3 [16],Active
same,Activity,[17],21.4%
same,IC50,NCI-H460,8.17 µM
same,Activity,SK-OV-3 [18],Dose-dependent effect
same,Activity,SK-OV-3 [19],Active
same,fold change (FC),SK-OV-3 [20],2
same,Activity,SK-OV-3 [21],Dose-dependent effect
same,IC50,[2],1.79 µM
same,Activity,SK-OV-3 [22],Active
same,Activity,SK-OV-3 [23],49.3%
same,IC50,A549,6.93 µM
same,Activity,[24],13.4%
same,IC50,[3],7.1 µM
same,Activity,SK-OV-3 [25],Dose-dependent effect
same,Activity,SK-OV-3 [26],14.4%
same,Activity,[27],Dose-dependent effect
same,Activity,SK-OV-3 [28],5.7%
same,Activity,SK-OV-3 [29],tde
same,Activity,SK-OV-3 [30],tde
same,IC50,[4],0.13 µM
CCOP(=O)(OCC)C(CNc1ccc(Oc2ccc(NC(=S)NC(=O)[C@]3(C)CCC[C@]4(C)c5ccc(C(C)C)cc5CC[C@@H]34)cc2)cc1)P(=O)(OCC)OCC,IC50,[1],44.6 µM
same,IC50,NCI-H460,38.2 µM
same,IC50,[2],58.9 µM
same,IC50,A549,20 µM
same,IC50,[3],31.3 µM
same,IC50,[4],40.9 µM
CCOP(=O)(OCC)C(CNc1cc(C)c(C)cc1NC(=S)NC(=O)[C@]1(C)CCC[C@]2(C)c3ccc(C(C)C)cc3CC[C@@H]12)P(=O)(OCC)OCC,IC50,[1],13.1 µM
same,IC50,NCI-H460,28.3 µM
same,IC50,[2],19.5 µM
same,IC50,A549,13.8 µM
same,IC50,[3],12.7 µM
same,IC50,[4],2.56 µM
CCOP(=O)(OCC)C(CNc1cccc(NC(=S)NC(=O)[C@]2(C)CCC[C@]3(C)c4ccc(C(C)C)cc4CC[C@@H]23)c1C)P(=O)(OCC)OCC,IC50,[1],11.9 µM
same,IC50,NCI-H460,14.2 µM
same,IC50,[2],17.3 µM
same,IC50,A549,15.7 µM
same,IC50,[3],11.9 µM
same,IC50,[4],5.98 µM
CCOP(=O)(OCC)C(CNc1ccc(Cc2ccc(NC(=S)NC(=O)[C@]3(C)CCC[C@]4(C)c5ccc(C(C)C)cc5CC[C@@H]34)cc2)cc1)P(=O)(OCC)OCC,IC50,[1],25.5 µM
same,IC50,NCI-H460,37.6 µM
same,IC50,[2],28.9 µM
same,IC50,A549,33.6 µM
same,IC50,[3],35.9 µM
same,IC50,[4],29.5 µM
CCOP(=O)(OCC)C(CNc1ccc(Sc2ccc(NC(=S)NC(=O)[C@]3(C)CCC[C@]4(C)c5ccc(C(C)C)cc5CC[C@@H]34)cc2)cc1)P(=O)(OCC)OCC,IC50,[1],34.1 µM
same,IC50,NCI-H460,40.9 µM
same,IC50,[2],40.9 µM
same,IC50,A549,38.8 µM
same,IC50,[3],39.2 µM
same,IC50,[4],1.01 µM
CCOP(=O)(OCC)C(CNc1ccc(NC(=S)NC(=O)[C@]2(C)CCC[C@]3(C)c4ccc(C(C)C)cc4CC[C@@H]23)cc1)P(=O)(OCC)OCC,IC50,[1],12.2 µM
same,IC50,NCI-H460,13 µM
same,IC50,[2],16.6 µM
same,IC50,A549,15.9 µM
same,IC50,[3],12.1 µM
same,IC50,[4],17.8 µM
CCOP(=O)(OCC)C(CNc1ccc(S(=O)(=O)c2ccc(NC(=S)NC(=O)[C@]3(C)CCC[C@]4(C)c5ccc(C(C)C)cc5CC[C@@H]34)cc2)cc1)P(=O)(OCC)OCC,IC50,[1],56 µM
same,IC50,NCI-H460,32.7 µM
same,IC50,[2],53.9 µM
same,IC50,A549,41.9 µM
same,IC50,[3],32.2 µM
same,IC50,[4],0.65 µM
CCOP(=O)(OCC)C(CNc1cccc(NC(=S)NC(=O)[C@]2(C)CCC[C@]3(C)c4ccc(C(C)C)cc4CC[C@@H]23)c1)P(=O)(OCC)OCC,IC50,[1],11.3 µM
same,IC50,NCI-H460,13.7 µM
same,IC50,[2],16.5 µM
same,IC50,A549,15.4 µM
same,IC50,[3],10.3 µM
same,IC50,[4],> 50 µM
CCOP(=O)(OCC)C(CNc1cc(Cl)c(NC(=S)NC(=O)[C@]2(C)CCC[C@]3(C)c4ccc(C(C)C)cc4CC[C@@H]23)cc1Cl)P(=O)(OCC)OCC,IC50,[1],20.2 µM
same,IC50,NCI-H460,24 µM
same,IC50,[2],22.1 µM
same,IC50,A549,16.4 µM
same,IC50,[3],24.6 µM
same,IC50,[4],> 50 µM
